Data published in patent publication EP0607373B1, “TRISUBSTITUTED PHENYL DERIVATIVES AS SELECTIVE PHOSPHODIESTERASE IV INHIBITORS” (CELLTECH THERAPEUTICS LIMITED, priority 1992, dated 1993).

Assays:
[1] = system: PDE IV, HL60 cells; test: Isolated enzyme phosphodiesterase assay, PDE IV; type: biochemical; details: 0.1µM [3H]-cAMP, 30°C, pH 7.5, read-out: approximate Ki values (Ki PDE IV HL60 at (1µM))
Description: The potency and selectivity of the compounds of the invention was determined using a battery of distinct PDE isoenzymes as follows: • i. PDE I, rabbit heart • ii. PDE II, rabbit heart • iii. PDE III, rabbit heart • iv. PDE IV, HL60 cells.
The enzymes were purified to kinetic homogeneity using standard chromatographic techniques.
Phosphodiesterase activity was assayed as follows. The reaction was conducted in 150µl of standard mixture containing (final concentrations): 50mM TES-NaOH buffer (pH 7.5), 10mM MgCl2, 0.1µM [^3H]-cAMP and vehicle or various concentrations of the test compounds. The reaction was initiated by addition of enzyme and conducted at 30°C for between 5 to 30 mins. The reaction was terminated by addition of 50µl 2% trifluoroacetic acid containing [^14C]-5'AMP for determining recovery of the product. An aliquot of the sample was then applied to a column of neutral alumina and the [^3H]-cAMP eluted with 10ml 0.1 TES-NaOH buffer (pH8). The [^3H]-5'-AMP product was eluted with 2ml 2M NaOH into a scintillation vial containing 10ml of scintillation cocktail. Recovery of [^3H]-5'AMP was determined using the [^14C]-5'AMP and all assays were conducted in the linear range of the reaction.

[2] = system: Right atrial and papillary muscles; details: reference inhibitors, general statement on these preparations; cited from earlier work

Row | SMILES | Ki [1] | direct effects on isolated cardiac muscle (chronotropic, inotropic) [2]
1 | COc1ccc(NC(=O)c2ccccc2)cc1OC1CCCC1 [Example 1, N-Benzoyl-3-cyclopentyloxy-4-methyloxyaniline] | ~0.391 µM | 
2 | COc1ccc(NC(=O)c2ccccc2[N+](=O)[O-])cc1OC1CCCC1 [Example 3, 3-Cyclopentyloxy-4-methyloxy-N-(2-Nitrobenzoyl)aniline] | ~0.179 µM | 
3 | Cc1[nH]c(=O)c(C#N)cc1-c1ccncc1 [milrinone] |  | positive chronotropic and inotropic effects
4 | COc1ccc(C2CNC(=O)C2)cc1OC1CCCC1 (stereo not shown) [rolipram] |  | do not have any direct effects
